Measured values: patent publication US20260108513A1 (Pfizer Inc., priority 2022, published 2026)

System: mCRPC patients
Experiment: TALAPRO-2 Part 2: safety, adverse events and supportive care (safety population)
Assay type: in vivo, human
Conditions: talazoparib+enzalutamide group
Text: This population was the primary population for evaluating safety.
Treatment-emergent is defined as the time between the first dose of study treatment to 28 days after the last dose of the last study treatment, or before any new antineoplastic therapy, whichever occurs first.

Cn1ncnc1[C@H]1c2n[nH]c(=O)c3cc(F)cc(c23)N[C@@H]1c1ccc(F)cc1 [talazoparib, (8S,9R)-5-fluoro-8-(4-fluorophenyl)-9-(1-methyl-1H-1,2,4-triazol-5-yl)-8,9-dihydro-2H-pyrido[4,3,2-de]phthalazin-3(7H)-one]
median time to onset of first G≥3 anemia: 3.3 months
recurrent G3-4 anemia: 20.6%
